In one test the test system is Staphylococcus aureus. As to the kind of experiment: Antibacterial activity against vancomycin-intermediate resistant Staphylococcus aureus Mu50 assessed as reduction in bacterial growth by measuring fold change at 0.0625 to 64 ug/ml incubated for 24 hrs by CLSI protocol based broth microdilution method relative to vancomycin. It counts as functional. As to conditions: dose 0.0625-64 µg/ml.

A further test relates to Enterococcus faecium. Nature of the test: Antibacterial activity against vancomycin-resistant Enterococcus faecium 0649 assessed as reduction in bacterial growth by measuring fold change at 0.0625 to 64 ug/ml incubated for 24 hrs by CLSI protocol based broth microdilution method relative to vancomycin. It is filed as functional. As to conditions: dose 0.0625-64 µg/ml. For orientation: Broth dilution looks for growth in wells or tubes with falling amounts of substance.

The record followed here is ChEMBL document CHEMBL5518226, “A Vancomycin-Templated DNA-Encoded Library for Combating Drug-Resistant Bacteria” (2024).

In the case of `CN[C@H](CC(C)C)C(=O)N[C@H]1C(=O)N[C@@H](CC(N)=O)C(=O)N[C@H]2C(=O)N[C@H]3C(=O)N[C@H](C(=O)N[C@H](C(=O)O)c4cc(O)cc(O)c4-c4cc3ccc4O)[C@H](O)c3ccc(c(Cl)c3)Oc3cc2cc(c3O[C@@H]2O[C@H](CO)[C@@H](O)[C@H](O)[C@H]2O[C@H]2C[C@](C)(NCc3ccc(-c4ccccc4)s3)[C@H](O)[C@H](C)O2)Oc2ccc(cc2Cl)[C@H]1O`, the “fold change (FC)” value in the test on Staphylococcus aureus amounted to 8; in the test on Enterococcus faecium, 16.

For the molecule `CN[C@H](CC(C)C)C(=O)N[C@H]1C(=O)N[C@@H](CC(N)=O)C(=O)N[C@H]2C(=O)N[C@H]3C(=O)N[C@H](C(=O)N[C@H](C(=O)O)c4cc(O)c(CN(C)Cc5cn(-c6cccc(NC(=O)OC(C)(C)C)c6)nn5)c(O)c4-c4cc3ccc4O)[C@H](O)c3ccc(c(Cl)c3)Oc3cc2cc(c3O[C@@H]2O[C@H](CO)[C@@H](O)[C@H](O)[C@H]2O[C@H]2C[C@](C)(NCc3cccc(-c4cc(F)ccc4F)n3)[C@H](O)[C@H](C)O2)Oc2ccc(cc2Cl)[C@H]1O`, the “fold change (FC)” value in the test with Enterococcus faecium is recorded as 8.

In the case of `CN[C@H](CC(C)C)C(=O)N[C@H]1C(=O)N[C@@H](CC(N)=O)C(=O)N[C@H]2C(=O)N[C@H]3C(=O)N[C@H](C(=O)N[C@H](C(=O)O)c4cc(O)c(CN(C)Cc5cn(-c6cccc(NC(=O)OC(C)(C)C)c6)nn5)c(O)c4-c4cc3ccc4O)[C@H](O)c3ccc(c(Cl)c3)Oc3cc2cc(c3O[C@@H]2O[C@H](CO)[C@@H](O)[C@H](O)[C@H]2O[C@H]2C[C@](C)(NCc3ccccc3Oc3ccccc3)[C@H](O)[C@H](C)O2)Oc2ccc(cc2Cl)[C@H]1O`, in the test on Enterococcus faecium, the “fold change (FC)” value is listed as 8.

Consider `CN[C@H](CC(C)C)C(=O)N[C@H]1C(=O)N[C@@H](CC(N)=O)C(=O)N[C@H]2C(=O)N[C@H]3C(=O)N[C@H](C(=O)N[C@H](C(=O)O)c4cc(O)cc(O)c4-c4cc3ccc4O)[C@H](O)c3ccc(c(Cl)c3)Oc3cc2cc(c3O[C@@H]2O[C@H](CO)[C@@H](O)[C@H](O)[C@H]2O[C@H]2C[C@](C)(NCc3ccc(-c4ccc(C(F)(F)F)cc4)cc3)[C@H](O)[C@H](C)O2)Oc2ccc(cc2Cl)[C@H]1O`, for which the “fold change (FC)” value came to 8 in the test on Staphylococcus aureus and 16 in the test on Enterococcus faecium.

Turning to `CN[C@H](CC(C)C)C(=O)N[C@H]1C(=O)N[C@@H](CC(N)=O)C(=O)N[C@H]2C(=O)N[C@H]3C(=O)N[C@H](C(=O)N[C@H](C(=O)O)c4cc(O)cc(O)c4-c4cc3ccc4O)[C@H](O)c3ccc(c(Cl)c3)Oc3cc2cc(c3O[C@@H]2O[C@H](CO)[C@@H](O)[C@H](O)[C@H]2O[C@H]2C[C@](C)(NCc3ccc(Cl)cc3Cl)[C@H](O)[C@H](C)O2)Oc2ccc(cc2Cl)[C@H]1O`, the “fold change (FC)” value in the test on Enterococcus faecium came to 8.

As to `CN[C@H](CC(C)C)C(=O)N[C@H]1C(=O)N[C@@H](CC(N)=O)C(=O)N[C@H]2C(=O)N[C@H]3C(=O)N[C@H](C(=O)N[C@H](C(=O)O)c4cc(O)cc(O)c4-c4cc3ccc4O)[C@H](O)c3ccc(c(Cl)c3)Oc3cc2cc(c3O[C@@H]2O[C@H](CO)[C@@H](O)[C@H](O)[C@H]2O[C@H]2C[C@](C)(NCCCc3cn(-c4ccc(OC(F)F)cc4)nn3)[C@H](O)[C@H](C)O2)Oc2ccc(cc2Cl)[C@H]1O`, the “fold change (FC)” value in the test with Staphylococcus aureus and in the test with Enterococcus faecium was 8 each time.

For the molecule `CN[C@H](CC(C)C)C(=O)N[C@H]1C(=O)N[C@@H](CC(N)=O)C(=O)N[C@H]2C(=O)N[C@H]3C(=O)N[C@H](C(=O)N[C@H](C(=O)O)c4cc(O)c(CN(C)Cc5cn(-c6cccc(NC(=O)OC(C)(C)C)c6)nn5)c(O)c4-c4cc3ccc4O)[C@H](O)c3ccc(c(Cl)c3)Oc3cc2cc(c3O[C@@H]2O[C@H](CO)[C@@H](O)[C@H](O)[C@H]2O[C@H]2C[C@](C)(NCc3ccccc3-c3ccccc3)[C@H](O)[C@H](C)O2)Oc2ccc(cc2Cl)[C@H]1O`, the “fold change (FC)” value in the test with Enterococcus faecium came to 8.
